These results are taken from patent US7811760B2, “Vector and method for detecting the change in transcription amount” (priority 2006, dated 2010).

SMILES strings stand for the structures.

The assay has as its target T1, aryl hydrocarbon receptor (Rattus norvegicus, UniProt P41738, Q794H).
T1 construct: The SD-line rat AhR gene-coding region was amplified from the reverse-transcribed sample by means of PCR; V5-His (C-terminal tag of vector pcDNA4/V5-His B); expressed in transfected cells; host or cells: mouse neuroblastoma Neuro2a, transient transfection with LIPOFECTAMINE 2000
T1 sequence (P41738 10-853 Q794H): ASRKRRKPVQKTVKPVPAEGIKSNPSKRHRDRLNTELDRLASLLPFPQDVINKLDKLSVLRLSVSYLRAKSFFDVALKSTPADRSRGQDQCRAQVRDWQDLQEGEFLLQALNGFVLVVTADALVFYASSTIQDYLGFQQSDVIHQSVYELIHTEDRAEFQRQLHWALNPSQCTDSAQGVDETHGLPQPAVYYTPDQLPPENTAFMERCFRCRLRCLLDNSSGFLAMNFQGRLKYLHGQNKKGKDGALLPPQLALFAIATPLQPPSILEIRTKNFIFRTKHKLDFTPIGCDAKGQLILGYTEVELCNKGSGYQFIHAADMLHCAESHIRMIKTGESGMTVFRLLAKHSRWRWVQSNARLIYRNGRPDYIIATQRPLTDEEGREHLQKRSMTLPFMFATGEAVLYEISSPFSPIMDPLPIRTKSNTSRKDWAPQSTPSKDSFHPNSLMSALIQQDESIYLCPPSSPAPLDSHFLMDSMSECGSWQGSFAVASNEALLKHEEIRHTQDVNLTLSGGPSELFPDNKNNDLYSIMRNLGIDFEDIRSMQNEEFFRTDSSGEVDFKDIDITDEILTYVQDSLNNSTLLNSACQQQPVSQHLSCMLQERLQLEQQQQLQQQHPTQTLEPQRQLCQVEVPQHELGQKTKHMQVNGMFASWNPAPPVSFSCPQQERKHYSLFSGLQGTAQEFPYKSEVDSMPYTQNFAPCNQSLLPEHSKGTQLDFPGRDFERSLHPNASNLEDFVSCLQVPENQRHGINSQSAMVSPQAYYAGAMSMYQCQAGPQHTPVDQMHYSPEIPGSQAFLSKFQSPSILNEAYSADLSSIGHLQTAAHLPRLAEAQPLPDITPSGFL
Description: Reporter gene assay in Neuro2a with pTHE60/Luc and pTHE60×3/Luc (SEQ ID No: 4). The format is cell-based, SD-line rat. As to conditions: 1 nM and 10 nM TCDD; pTHE60/Luc versus pTHE60×3/Luc. On the procedure:
In Example 9, the region of SEQ ID No: 4 was used as the TCDD-responsive region in the TH transcriptional regulatory region. The region of SEQ ID No: 4 was amplified by PCR using the region of SEQ ID No: 3 as a template and using the following primers: Forward primer: 5′-[…]-3′ (SEQ ID No: 29); and Reverse primer: 5′-[…]-3′ (SEQ ID No: 30). Pyrobest DNA polymerase was used in the PCR. Recognition sequences for restriction enzymes KpnI (for forward primer) and NheI (for reverse primer) were added to the terminal of the respective primers, for the purpose of facilitating incorporation of the PCR amplified fragment into the vector. The terminal of the region of SEQ ID No: 4 amplified by PCR was phosphorylated with 5′-polynucleotide kinase (Takara Bio Inc.), and then, the regions of SEQ ID No: 4 were ligated in tandem with each other by using a ligation kit. The ligated DNA fragments were digested with restriction enzymes KpnI and NheI, and subjected to agarose gel electrophoresis. DNA fragment consisting of a single copy of the region of SEQ ID No: 4 and DNA fragment consisting of three copies of the regions of SEQ ID No: 4 linked in tandem were excised from the gel based on their molecular weight, and purified with a QIAQUICK Gel Extraction Kit. […]
For orientation: Reporter assays use an easily measured gene product as a stand-in for the process of interest.

`Clc1cc2c(cc1Cl)Oc1cc(Cl)c(Cl)cc1O2` [TCDD, 2,3,7,8-tetrachlorodibenzo-p-dioxine]: the “activity of the test substance on transcriptional regulation, by number of regions of SEQ ID No: 4” value is listed as “increased according to the increase in the number of the regions incorporated into the vector”.
